Blank lines part the entries; values can stand above or below the compound they belong to. Residues, ends and D or L forms follow the SMILES beside them. *: point of attachment. Fmoc = O=C(OCC1c2ccccc2-c2ccccc21)*; Ahx = NCCCCCC(=O)O
How the values were obtained:
IL-17A [1] = target: T1, IL-17A (Mus musculus, UniProt Q62386); assay: Lysosome inhibition assay (LPT, BafA1); format: cell-based; parameters: host or cells: added exogenously to RAW264.7, SR-A-KO RAW264.7, U-118 MG, DC 2.4 or HaCaT cells; conditions: RAW264.7, 0.5 μg/ml IL-17A + 50 μM 17A-Lytaca, 6 h
T1 sequence (Q62386 26-158): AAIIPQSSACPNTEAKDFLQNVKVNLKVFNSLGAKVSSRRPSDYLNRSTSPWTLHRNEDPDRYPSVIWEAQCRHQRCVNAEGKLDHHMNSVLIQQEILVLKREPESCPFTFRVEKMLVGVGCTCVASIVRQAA
Method: To confirm the involvement of lysosomes, RAW264.7 cells were pretreated with PBS, LPT (0.1 mg/ml), or BafA1 (100 nM) for 2 h at 37 °C. […] The accumulation of IL-17A in the cells was then measured via flow cytometry, following the aforementioned procedure.

[2] = In vivo localization and clearance assay of 17A-Lytaca (IVIS); parameters: species or system mouse; conditions: psoriasis mice, i.p. Cy-labeled 17A-Lytaca (Cy5-fm-17Abp 5 mg/kg, Cy7-fm-SRAL 7.3 mg/kg)
Method: Fluorescence imaging in both the Cy5 and Cy7 channels was conducted using the in vivo imaging system (IVIS Spectrum) at 4, 8, 12, 24, and 48 h post-injection. Further, for biodistribution assessment, mice were sacrificed at 6 h post-injection, and skins along with major organs (heart, liver, spleen, lung, and kidney) were removed for ex vivo fluorescence imaging.

[3] = Serum clearance kinetics of 17A-Lytaca relevant peptides; format: in vivo, mouse; conditions: healthy mice, i.p. Cy-labeled 17A-Lytaca (Cy5-fm-17Abp 15 mg/kg, Cy3-fm-SRAL 22 mg/kg), IVIS, n = 3
Method: Serum samples were collected at 0, 1, 2, 3, 4, 8, 12, and 24 h for analysis. The fluorescence intensity of serum was measured with the in vivo imaging system (IVIS) spectrum.

IL-17A [4] = target: T1, IL-17A; assay: IL-17A binding competition experiment with IL-17RA (IL-17A uptake); format: cell-based; parameters: host or cells: added exogenously to RAW264.7, SR-A-KO RAW264.7, U-118 MG, DC 2.4 or HaCaT cells; conditions: RAW264.7, with fi-SRAL and fi-17Abp mixture and IL-17A
Method: To verify the binding of the IL-17A by mixed fi-17Abp and fi-SRAL, RAW264.7 cells were treated with 0.5 μg/ml IL-17A, 50 μM mixed fi-SRAL and fi-17Abp and IL-17RA at 0, 0.0125, 0.025, 0.05, 0.1, or 0.2 μg/ml for 6 h. Then, flow cytometry analysis was used to measure the intracellular IL-17A level according to the procedure mentioned above.

Compound: CO/C1=C\C(C)=C\[C@@H](C)[C@@H](O)[C@@H](C)C/C(C)=C/C=C/[C@H](OC)[C@@H]([C@@H](C)[C@@H](O)[C@H](C)[C@@]2(O)C[C@@H](O)[C@H](C)[C@@H](C(C)C)O2)OC1=O [BafA1, Bafilomycin A1]
IL-17A accumulation in cells with lysosome inhibitor (in words) (IL-17A [1]): significantly higher IL-17A accumulation in cells

Compound: C[C@H](NC(=O)[C@H](CCC(=O)O)NC(=O)[C@H](C)NC(=O)[C@H](CCC(=O)O)NC(=O)[C@H](C)NC(=O)[C@H](CCC(=O)O)NC(=O)[C@H](C)NC(=O)[C@H](CCC(=O)O)NC(=O)[C@H](C)NC(=O)[C@H](CCC(=O)O)NC(=O)[C@H](C)NC(=O)[C@H](CCC(=O)O)NC(=O)[C@H](C)NC(=O)[C@H](CCC(=O)O)NC(=O)[C@H](C)NC(=O)[C@H](CCC(=O)O)NC(=O)[C@H](C)NC(=O)[C@H](CCC(=O)O)NC(=O)[C@H](C)NC(=O)[C@H](CCC(=O)O)NC(=O)[C@H](C)NC(=O)[C@H](CCC(=O)O)NC(=O)[C@H](C)NC(=O)[C@H](CCC(=O)O)NC(=O)[C@H](C)NC(=O)[C@H](CCC(=O)O)NC(=O)[C@H](C)NC(=O)[C@H](CCC(=O)O)NC(=O)[C@H](C)NC(=O)[C@H](CCC(=O)O)NC(=O)CCCCCNC(=O)OCC1c2ccccc2-c2ccccc21)C(N)=O [fm-SRAL] ({Fmoc-Ahx}-EAEAEAEAEAEAEAEAEAEAEAEAEAEAEA-NH2)
Time up to which the peptide remained detectable in vivo [2]: 48 h | Time up to which the serum fluorescent signal was detectable [3]: ≤ 8 h

Effect on intracellular IL-17A signal (in words) (IL-17A [4]): concentration-dependent attenuation
Compound: IL-17RA: IL-17A receptor protein used as competitor for the 17Abp binding domain of IL-17A

— article PMC10891067, “A co-assembly platform engaging macrophage scavenger receptor A for lysosome-targeting protein degradation” (Nature Communications, 2024)
